Values of other authors, collected in US20240238224A1, “COMPOSITION FOR LOCAL ANAESTHESIA AND USES THEREOF” (priority 2023, published 2024).

System: test teeth

CCCCN1CCCCC1C(=O)Nc1c(C)cccc1C (centres unmarked) [bupivacaine, 1-butyl-N-(2,6-dimethylphenyl)piperidine-2-carboxamide]
effectiveness compared with tetracaine (reported in U.S. Pat. No. 8,580,282 B2, cols. 7, 13, 14): not as effective as tetracaine

CCCCNc1ccc(C(=O)OCCN(C)C)cc1 [tetracaine, 2-(dimethylamino)ethyl 4-(butylamino)benzoate]
effectiveness for inducing pulpal anesthesia, 4% versus 3% tetracaine (non-injected formulation with vasoconstrictor, reported in U.S. Pat. No. 8,580,282 B2): 4% tetracaine is less effective than 3%
